Test: Stability test: half-life for deprotection in 80% acetic acid (Table 2)
Format: physicochemical
Details: 30 mmolar solution, 20° C., Values +/- 5%
Protocol: (§1) To test the stability, the following uridine derivatives were incubated in 0.05N HCl/MeOH (1:2), 30 mmolar solution, 20° C., pH 2.0 (Table 1) or in 80% acetic acid, 30 mmolar solution, 20° C. (Table 2) and the half-life for deprotection was determined: […]

| SMILES | t1/2 (half-life for deprotection) [h] |
| --- | --- |
| CC(OCc1cc(Cl)c(O)cc1Cl)O[C@@H]1[C@H](O)[C@@H](CO)O[C@H]1n1ccc(=O)[nH]c1=O (stereo partly shown) | 4.17 |
| CC(OCc1cc(Cl)c(OC(=O)OCCc2ccc([N+](=O)[O-])cc2)cc1Cl)O[C@@H]1[C@H](O)[C@@H](CO)O[C@H]1n1ccc(=O)[nH]c1=O (stereo partly shown) | 21.67 |
| CC(OCc1c(Cl)cccc1Cl)O[C@@H]1[C@H](O)[C@@H](CO)O[C@H]1n1ccc(=O)[nH]c1=O (stereo partly shown) | 18.8 |
| CC(OCc1ccc(O)c(F)c1)O[C@@H]1[C@H](O)[C@@H](CO)O[C@H]1n1ccc(=O)[nH]c1=O (stereo partly shown) | 0.8 |
| CC(OCc1ccccc1)O[C@@H]1[C@H](O)[C@@H](CO)O[C@H]1n1ccc(=O)[nH]c1=O (stereo partly shown) [drawing 64] | 1.1 |
| CC(OCc1ccc(O)c(Cl)c1)O[C@@H]1[C@H](O)[C@@H](CO)O[C@H]1n1ccc(=O)[nH]c1=O (stereo partly shown) | 0.917 |
| CC(OCc1ccc(OC(=O)OCCc2ccc([N+](=O)[O-])cc2)c(F)c1)O[C@@H]1[C@H](O)[C@@H](CO)O[C@H]1n1ccc(=O)[nH]c1=O (stereo partly shown) | 5.08 |
| CC(OCc1ccc(OC(=O)OCCc2ccc([N+](=O)[O-])cc2)cc1)O[C@@H]1[C@H](O)[C@@H](CO)O[C@H]1n1ccc(=O)[nH]c1=O (stereo partly shown) | 1.73 |
| CC(OCc1cc(Cl)c(OC(=O)C(C)(C)C)cc1Cl)O[C@@H]1[C@H](O)[C@@H](CO)O[C@H]1n1ccc(=O)[nH]c1=O (stereo partly shown) | 22.58 |
| CC(OCc1ccc(O)cc1)O[C@@H]1[C@H](O)[C@@H](CO)O[C@H]1n1ccc(=O)[nH]c1=O (stereo partly shown) | 0.35 |

Test: Stability test: half-life for deprotection in 0.05N HCl/MeOH (Table 1)
Format: physicochemical
Details: 0.05N HCl/MeOH (1:2), 30 mmolar solution, 20° C., pH 2.0; values +/- 10%
Protocol: as §1

| SMILES | t1/2 (half-life for deprotection) |
| --- | --- |
| COc1ccc(COC(C)O[C@@H]2[C@H](O)[C@@H](CO)O[C@H]2n2ccc(=O)[nH]c2=O)cc1 (stereo partly shown) | 1.22 h |
| CC(OCCC#N)O[C@@H]1[C@H](O)[C@@H](CO)O[C@H]1n1ccc(=O)[nH]c1=O (stereo partly shown) [CH2 CH2CN] | 56.17 h |
| CC(OCc1ccccc1[N+](=O)[O-])O[C@@H]1[C@H](O)[C@@H](CO)O[C@H]1n1ccc(=O)[nH]c1=O (stereo partly shown) | 37.33 h |
| CC(OCCc1ccc([N+](=O)[O-])cc1)O[C@@H]1[C@H](O)[C@@H](CO)O[C@H]1n1ccc(=O)[nH]c1=O (stereo partly shown) | 3.7 h |
| CC(OCCc1ccc([N+](=O)[O-])cc1[N+](=O)[O-])O[C@@H]1[C@H](O)[C@@H](CO)O[C@H]1n1ccc(=O)[nH]c1=O (stereo partly shown) | approx. 1200 min |
| CC(OCc1ccccc1)O[C@@H]1[C@H](O)[C@@H](CO)O[C@H]1n1ccc(=O)[nH]c1=O (stereo partly shown) [drawing 52] | 2.92 h |
| CC(OCCS(=O)(=O)c1ccccc1)O[C@@H]1[C@H](O)[C@@H](CO)O[C@H]1n1ccc(=O)[nH]c1=O (stereo partly shown) | 52 h |
| CC(OCCN1C(=O)c2ccccc2C1=O)O[C@@H]1[C@H](O)[C@@H](CO)O[C@H]1n1ccc(=O)[nH]c1=O (stereo partly shown) | 14 h |
| COc1ccc(COC(C)O[C@@H]2[C@H](O)[C@@H](CO)O[C@H]2n2ccc(=O)[nH]c2=O)cc1OC (stereo partly shown) | 1.37 h |
| CC(OCC[N+](=O)[O-])O[C@@H]1[C@H](O)[C@@H](CO)O[C@H]1n1ccc(=O)[nH]c1=O (stereo partly shown) [CH2CH2NO2] | 67.17 h |
| CC(OCc1ccc([N+](=O)[O-])cc1[N+](=O)[O-])O[C@@H]1[C@H](O)[C@@H](CO)O[C@H]1n1ccc(=O)[nH]c1=O (stereo partly shown) | approx. 14000 min |
| CC(OCCS(C)(=O)=O)O[C@@H]1[C@H](O)[C@@H](CO)O[C@H]1n1ccc(=O)[nH]c1=O (stereo partly shown) | 52 h |
| CC(OCCSc1ccccc1)O[C@@H]1[C@H](O)[C@@H](CO)O[C@H]1n1ccc(=O)[nH]c1=O (stereo partly shown) | 3.83 h |
| CC(OCCCl)O[C@@H]1[C@H](O)[C@@H](CO)O[C@H]1n1ccc(=O)[nH]c1=O (stereo partly shown) [CH2CH2Cl] | 10.3 h |
| CC(OCc1ccc([N+](=O)[O-])cc1)O[C@@H]1[C@H](O)[C@@H](CO)O[C@H]1n1ccc(=O)[nH]c1=O (stereo partly shown) | 32.67 h |

From US5866700A, “Solid-phase synthesis of oligoribonucleotides” (Hoechst Aktiengesellschaft, priority 1993, dated 1999)
